Measured values reported in the supplement of paper PMC11061612.

Legend:
Experiment in all cases: combination Emax (second highest fraction inhibited in the dose matrix, 72 h); higher = more inhibition; extreme values may be limits of the assay
[1] = system: LN-229 (Glioblastoma)
Method in brief: (§1)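 Cell lines grown in DMEM/F12 or RPMI with 10% FBS were plated in 1536-well plates and held 24 hours at 37°C, 5% CO2 before 72 hours of exposure to two-drug dose matrices, with DMSO typically at 0.2%. CellTiter-Glo 2.0 luminescence gave viability, which was converted to inhibition. Vehicle wells were set to 0 and blank wells to 1. Combination Emax is the second-highest inhibition in the matrix, and Bliss excess is the observed combination effect minus the expected EA + EB − EA·EB, where EA and EB are the single-agent effects.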

[2] = system: LXF-289 (Lung Adenocarcinoma)
Method in brief: as §1

[3] = system: RKN (Other Solid Carcinomas)
Method in brief: as §1

[4] = system: 23132-87 (Gastric Carcinoma)
Method in brief: as §1

[5] = system: FADU (Head and Neck Carcinoma)
Method in brief: as §1

[6] = system: TE-8 (Esophageal Squamous Cell Carcinoma)
Method in brief: as §1

[7] = system: NCI-H23 (Lung Adenocarcinoma)
Method in brief: as §1

[8] = system: SK-PN-DW (Other Solid Carcinomas)
Method in brief: as §1

[9] = system: OPM-2 (Plasma Cell Myeloma)
Method in brief: as §1

[10] = system: HEC-1 (Endometrial Carcinoma)
Method in brief: as §1

[11] = system: SU-DHL-10 (B-Cell Non-Hodgkin's Lymphoma)
Method in brief: as §1

[12] = system: L-1236 (Hodgkin's Lymphoma)
Method in brief: as §1

[13] = system: HCT-15 (Colorectal Carcinoma)
Method in brief: as §1

[14] = system: WM278 (Melanoma)
Method in brief: as §1

[15] = system: SF539 (Glioblastoma)
Method in brief: as §1

[16] = system: GB-1 (Glioblastoma)
Method in brief: as §1

[17] = system: OAW-42 (Ovarian Carcinoma)
Method in brief: as §1

[18] = system: IST-MES1 (Mesothelioma)
Method in brief: as §1

[19] = system: LK-2 (Squamous Cell Lung Carcinoma)
Method in brief: as §1

[20] = system: SHP-77 (Small Cell Lung Carcinoma)
Method in brief: as §1

Structure (SMILES)	combination Emax [1]	combination Emax [2]	combination Emax [3]	combination Emax [4]	combination Emax [5]	combination Emax [6]	combination Emax [7]	combination Emax [8]	combination Emax [9]	combination Emax [10]	combination Emax [11]	combination Emax [12]	combination Emax [13]	combination Emax [14]	combination Emax [15]	combination Emax [16]	combination Emax [17]	combination Emax [18]	combination Emax [19]	combination Emax [20]
CC1(C)CCC(CN2CCN(c3ccc(C(=O)NS(=O)(=O)c4ccc(NCC5CCOCC5)c([N+](=O)[O-])c4)c(Oc4cnc5[nH]ccc5c4)c3)CC2)=C(c2ccc(Cl)cc2)C1 [Venetoclax] + C1CN(CCC1(C(=O)N[C@@H](CCO)C2=CC=C(C=C2)Cl)N)C3=NC=NC4=C3C=CN4 [Capivasertib] (first compound max 1 µM, 7x7, partner max 3 µM)	0.086	0.204	0.149	0.0322	0.155	0.424	0.119	0.882	0.925	0.102	0.957	0.644	0.254	0.232	0.551	0.185	0.368	0.123	0.177	0.402
CC1(C)CCC(CN2CCN(c3ccc(C(=O)NS(=O)(=O)c4ccc(NCC5CCOCC5)c([N+](=O)[O-])c4)c(Oc4cnc5[nH]ccc5c4)c3)CC2)=C(c2ccc(Cl)cc2)C1 [Venetoclax] + Cn1cnc2c(F)c(Nc3ccc(Br)cc3Cl)c(C(=O)NOCCO)cc21 [Selumetinib] (first compound max 1 µM, 7x7, partner max 3 µM)	0.3	0.183	0.291	0.0843	0.364	0.457	0.264	0.806	0.385	0.0851	0.072	0.731	0.156	0.633	0.217	0.0816	0.147	0.161	0.172	0.455
Cc1c2c(nn1C)CSCc1cc(n(C)n1)CSc1cc(c3ccccc3c1)OCCCc1c(C(=O)O)n(C)c3c-2c(Cl)ccc13 [AZD5991] + CCN(CCO)CCCOc1ccc2c(Nc3cc(CC(=O)Nc4cccc(F)c4)[nH]n3)ncnc2c1 [AZD2811] (first compound max 1 µM, 7x7, partner max 1 µM)	0.522	0.864	0.185	0.924	0.986	0.529	0.926	0.985	1	0.217	1	0.491	0.263	0.396	0.553	0.264	0.288	0.266	0.962	0.289
COc1cc2ncnc(Nc3ccc(F)c(Cl)c3)c2cc1OCCCN1CCOCC1 [Gefitinib] + CC(C)n1c(=O)n(C)c2cnc3cc(F)c(-c4ccc(OCCCN5CCCCC5)nc4)cc3c21 [AZD1390] (first compound max 10 µM, 7x7, partner max 0.3 µM)	0.0879	0.0907	0.175	0.127	0.471	0.225	0.107	0.184	0.203	0.0663	0.723	0.254	0.352	0.0959	0.143	0.0404	0.107	0.17	0.2	0.0777
CC1(C)CCC(CN2CCN(c3ccc(C(=O)NS(=O)(=O)c4ccc(NCC5CCOCC5)c([N+](=O)[O-])c4)c(Oc4cnc5[nH]ccc5c4)c3)CC2)=C(c2ccc(Cl)cc2)C1 [Venetoclax] + C[C@@H](Nc1cc(F)cc(F)c1)c1cc(C(=O)N(C)C)cc2c(=O)cc(N3CCOCC3)oc12 [AZD8186] (first compound max 1 µM, 7x7, partner max 3 µM)	0.0902	0.224	0.18	0.0687	0.128	0.401	0.148	0.862	0.513	0.0634	0.735	0.665	0.138	0.306	0.287	0.168	0.125	0.176	0.0674	0.322
CC1(C)CCC(CN2CCN(c3ccc(C(=O)NS(=O)(=O)c4ccc(NCC5CCOCC5)c([N+](=O)[O-])c4)c(Oc4cnc5[nH]ccc5c4)c3)CC2)=C(c2ccc(Cl)cc2)C1 [Venetoclax] + CCN(CCO)CCCOc1ccc2c(Nc3cc(CC(=O)Nc4cccc(F)c4)[nH]n3)ncnc2c1 [AZD2811] (first compound max 1 µM, 7x7, partner max 1 µM)	0.208	0.389	0.176	0.152	0.219	0.396	0.184	0.872	0.689	0.16	0.807	0.718	0.178	0.337	0.481	0.094	0.204	0.198	0.851	0.64
CS(=O)(=O)CCNCc1ccc(-c2ccc3ncnc(Nc4ccc(OCc5cccc(F)c5)c(Cl)c4)c3c2)o1 [Lapatinib] + C[C@@H](Oc1cc(-c2cnn(C3CCNCC3)c2)cnc1N)c1c(Cl)ccc(F)c1Cl [Crizotinib] (first compound max 10 µM, 7x7, partner max 10 µM)	0.334	1	0.294	0.594	0.931	0.71	0.645	0.938	0.944	0.182	1	0.984	0.925	0.768	0.937	0.843	0.732	0.686	0.888	0.817
COc1nnc2ccc(N3CCC(c4ccc(OCCN5CCN(C)C(=O)[C@H]5C)cc4)CC3)nn12 [AZD5153] + C[C@@H]1COCCN1C2=NC(=NC(=C2)C3(CC3)[S@](=N)(=O)C)C4=C5C=CNC5=NC=C4 [AZD6738] (first compound max 1 µM, 7x7, partner max 10 µM)	0.575	0.862	0.562	0.594	0.642	0.617	1	0.868	1	0.884	1	0.998	0.858	0.671	0.882	0.678	0.702	0.644	0.784	0.821
CN(CCO)CC[C@H](CSc1ccccc1)Nc1ccc(S(=O)(=O)NC(=O)c2ccc(N3CCC([C@@H](O)c4ccccc4-c4ccc(Cl)cc4)CC3)cc2)cc1S(=O)(=O)C(F)(F)F [AZD4320] + C=CCn1c(=O)c2cnc(Nc3ccc(N4CCN(C)CC4)cc3)nc2n1-c1cccc(C(C)(C)O)n1 [AZD1775] (first compound max 1 µM, partner max 1 µM)	0.428	0.638	0.315	0.846	0.453	0.932	0.832	0.898	0.955	0.456	0.992	1	0.456	0.765	0.978	0.223	0.496	0.461	0.992	0.65
Cc1c2c(nn1C)CSCc1cc(n(C)n1)CSc1cc(c3ccccc3c1)OCCCc1c(C(=O)O)n(C)c3c-2c(Cl)ccc13 [AZD5991] + C[C@@H]1COCCN1C2=NC(=NC(=C2)C3(CC3)[S@](=N)(=O)C)C4=C5C=CNC5=NC=C4 [AZD6738] (first compound max 1 µM, 7x7, partner max 10 µM)	0.777	0.776	0.215	0.979	0.985	0.751	0.977	0.947	1	0.404	1	0.74	0.733	0.562	0.919	0.489	0.644	0.285	0.357	0.594
Cc1c2c(nn1C)CSCc1cc(n(C)n1)CSc1cc(c3ccccc3c1)OCCCc1c(C(=O)O)n(C)c3c-2c(Cl)ccc13 [AZD5991] + C1CN(CCC1(C(=O)N[C@@H](CCO)C2=CC=C(C=C2)Cl)N)C3=NC=NC4=C3C=CN4 [Capivasertib] (first compound max 1 µM, 7x7, partner max 3 µM)	0.42	0.369	0.173	0.934	1	0.523	0.899	0.95	1	0.0757	1	0.42	0.209	0.266	0.573	0.195	0.37	0.138	0.121	0.263
CN(CCO)CC[C@H](CSc1ccccc1)Nc1ccc(S(=O)(=O)NC(=O)c2ccc(N3CCC([C@@H](O)c4ccccc4-c4ccc(Cl)cc4)CC3)cc2)cc1S(=O)(=O)C(F)(F)F [AZD4320] + C[C@@H](Nc1cc(F)cc(F)c1)c1cc(C(=O)N(C)C)cc2c(=O)cc(N3CCOCC3)oc12 [AZD8186] (first compound max 1 µM, 7x7, partner max 3 µM)	0.389	0.348	0.314	0.74	0.846	0.463	0.335	0.757	0.589	0.392	0.81	0.981	0.187	0.85	0.373	0.548	0.414	0.325	0.794	0.53
